In patent publication US20230286973A1, “PROTEIN SECRETION INHIBITORS” (KEZAR LIFE SCIENCES, priority 2020, published 2023):

Assays:
[1] = Liver Microsome Stability Assay (human); conditions: human liver microsomes, with NADPH, 1.0 uM compound
Protocol: (§1) Stability of a compound was assessed in the presence of liver microsomes from various sources—mouse, rat, monkey and human liver microsomes. 1.0 uM compound, 0.4% DMSO in 0.1 M Potassium Phosphate with 1.0 mg/mL liver microsomes, were incubated at 37° C. with or without 1 mM NADPH. The samples were quenched at 0, and 30 minutes.

[2] = system: PD1-ss+10aa/Gaussia Luciferase; assay: Dox-Induced PD1-ss-Gluc Assay; format: cell-based; conditions: 24 hr Dox induction; 293FRT/TO cells; read-out: 24 hr Dox Inducible PD1ssGluc 293FRT/TO: Mean IC50
Summary of the method: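 Compounds were added in DMSO/media with doxycycline and incubated at 37 °C, 5% CO2, on 293 T-REx cells plated one day earlier. These cells stably express, under tetracycline-regulated control, a Gaussia luciferase fused to the PD1 signal peptide plus 10 residues. Structures drawn without stereochemistry were tested as stereoisomer mixtures.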

[3] = system: TNFα-FL/Gaussia Luciferase; assay: Dox Induced TNFα-FL-Gluc Assay; format: cell-based; conditions: for IC50: 24 hr Dox induction, 293FRT/TO cells, read-out: 24 hr Dox Inducible TNFaFLGluc 293FRT/TO: Mean IC50; for 24 hr Dox Inducible TNFaFLGluc 293FRT/TO: TNF/PD1: ratio of TNFaFLGluc IC50 to PD1ssGluc IC50
Summary of the method: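 Compound was added with doxycycline to cells plated a day earlier, incubating at 37° C under 5% CO2. The reporter line is 293 T-REx expressing a TNFα (1-233)–Gaussia luciferase fusion under tetracycline-regulated control.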

[4] = system: HER3-ss+4aa/Gaussia Luciferase; assay: Dox-Induced Her3-ss-Gluc Assay; format: cell-based; conditions: 24 hr Dox induction; 293FRT/TO cells; read-out: 24 hr Dox Inducible Her3(ss + 4)Gluc 293FRT/TO: Mean IC50
Summary of the method: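 Compounds were diluted in DMSO/media containing doxycycline. They were added to Flp-In 293 T-REx cells plated the previous day, then incubated at 37 °C under 5% CO2. These cells stably express, under T-REx control, Gaussia luciferase fused to the HER3 signal sequence plus 4 amino acids.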

[5] = system: multiple myeloma cell line NCI-H929; assay: H929 Cell Viability Assay; format: cell-based, human; conditions: Homo sapiens, NCI-H929, 48 h, NCI-H929 cells, Celltiter-Glo
Summary of the method: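 Luminescent CellTiter-Glo read-out of viability after a 48 h exposure (37° C, 5% CO2) of NCI-H929 myeloma cells to compound dilutions in RPMI 1640 plus 10% FBS. Data for structures drawn without stereochemistry refer to stereoisomer mixtures.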

[6] = Liver Microsome Stability Assay (mouse); conditions: mouse liver microsomes, with NADPH, 1.0 uM compound
Protocol: as §1

[7] = system: multiple myeloma cell line U266B1; assay: U266 Cell Viability Assay; format: cell-based, human; conditions: Homo sapiens, U-266, 48 h, U266B1 cells, Celltiter-Glo
Summary of the method: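 CellTiter-Glo luminescence was read after a 48 h compound exposure (37 °C, 5% CO2) of human U266B1 myeloma cells grown in 10% FBS-supplemented RPMI 1640. Data for structures shown without defined stereochemistry refer to stereoisomer mixtures.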

[8] = system: IL-2-FL/Gaussia Luciferase; assay: Dox Induced IL2-FL-Gluc Assay; format: cell-based; conditions: for IC50: 24 hr Dox induction, 293FRT/TO cells, read-out: 24 hr Dox Inducible IL2FLGluc 293FRT/TO: Mean IC50; for 24 hr Dox Inducible IL2FLGluc 293FRT/TO: IL2/PD1: ratio of IL2FLGluc IC50 to PD1ssGluc IC50
Summary of the method: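 Compounds in DMSO/medium with doxycycline were applied to a 293 T-REx stable line expressing an IL-2 (aa 1-153)–Gaussia luciferase fusion under tetracycline-regulated control, cells seeded one day earlier; incubation at 37 °C, 5% CO2. Structures drawn without stereochemistry were tested as stereoisomer mixtures.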

[9] = Liver Microsome Stability Assay (monkey); conditions: monkey liver microsomes, with NADPH, 1.0 uM compound
Protocol: as §1

[10] = Liver Microsome Stability Assay (rat); conditions: rat liver microsomes, with NADPH, 1.0 uM compound
Protocol: as §1

Structure (SMILES) | Liver Microsome Stability (Multiple Species): Human - % Remaining after 30 min w/NADPH [1] [%] | IC50 [2] [nM] | IC50 [3] [nM] | 24 hr Dox Inducible TNFaFLGluc 293FRT/TO: TNF/PD1 [3] | IC50 [4] [nM] | EC50 [5] [nM] | Liver Microsome Stability (Multiple Species): Mouse - % Remaining after 30 min w/NADPH [6] [%] | EC50 [7] [nM] | IC50 [8] [nM] | 24 hr Dox Inducible IL2FLGluc 293FRT/TO: IL2/PD1 [8] | Liver Microsome Stability (Multiple Species): Monkey - % Remaining after 30 min w/NADPH [9] [%] | Liver Microsome Stability (Multiple Species): Rat - % Remaining after 30 min w/NADPH [10] [%]
O=C1CCc2cc(N3CCC[C@@H]3c3csc(NC(=O)c4cccn4Cc4ccncc4)n3)ccc2N1 [Compound A75, (R)-N-(4-(1-(2-oxo-1,2,3,4-tetrahydroquinolin-6-yl)pyrrolidin-2-yl)thiazol-2-yl)-1-(pyridin-4-ylmethyl)-1H-pyrrole-2-carboxamide] | 6.4 | 2.5 | 71 | 28.4 | 0.6 | 251 | 3.74 | > 25000 | 8.11 | 3.2 | 0.87 | 0.05
CN(C)c1cccc(-c2csc(NC(=O)c3cccn3Cc3ccncc3)n2)c1 [Compound A76, N-(4-(3-(dimethylamino)phenyl)thiazol-2-yl)-1-(pyridin-4-ylmethyl)-1H-pyrrole-2-carboxamide] | 2.44 | 292 | 6660 | 22.9 | 830 | 22400 | 11 | > 25000 | 1510 | 5.2 | 1.43 | 4.99
CCc1ccc(N2CCC[C@@H]2c2csc(NC(=O)c3cccn3Cc3ccnc(F)c3)n2)cc1 [Compound A77, (R)-N-(4-(1-(4-ethylphenyl)pyrrolidin-2-yl)thiazol-2-yl)-1-((2-fluoropyridin-4-yl)methyl)-1H-pyrrole-2-carboxamide] | 72.8 | 1.84 | 19.1 | 10.4 | 3.62 | 60.1 | 79.6 | > 25000 | 3.22 | 1.8 | 22.4 | 38.1
O=C(Nc1nc([C@H]2CCCN2c2ccc(CCO)cc2)cs1)c1cccn1Cc1ccnc(F)c1 [Compound A78, (R)-1-((2-fluoropyridin-4-yl)methyl)-N-(4-(1-(4-(2-hydroxyethyl)phenyl)pyrrolidin-2-yl)thiazol-2-yl)-1H-pyrrole-2-carboxamide] | 6.01 | 13.2 | 159 | 12 | 27.7 | 495 | 6.09 | > 25000 | 30.1 | 2.3 | 3.13 | 3.42
CC(=O)N1CCC(Oc2ccc(N3CCC[C@@H]3c3csc(NC(=O)c4cccn4Cc4ccnc(F)c4)n3)cc2)C1 (stereo partly drawn) [Compound A79, N-(4-((2R)-1-(4-((1-acetylpyrrolidin-3-yl)oxy)phenyl)pyrrolidin-2-yl)thiazol-2-yl)-1-((2-fluoropyridin-4-yl)methyl)-1H-pyrrole-2-carboxamide] | 5.48 | 10.8 | 171 | 15.9 | 23.2 | 345 | 5.88 | > 25000 | 29.7 | 2.8 | 0.78 | 37.7
O=C(Nc1nc([C@H]2CCCN2c2ccc(OC3CCNC3)cc2)cs1)c1cccn1Cc1ccnc(F)c1 (stereo partly drawn) [Compound A80, 1-((2-fluoropyridin-4-yl)methyl)-N-(4-((2R)-1-(4-(pyrrolidin-3-yloxy)phenyl)pyrrolidin-2-yl)thiazol-2-yl)-1H-pyrrole-2-carboxamide] | 51 | 595 | 11400 | 19.1 | 1070 | 5730 | 71.9 | 7780 | 1840 | 3.1 | 17.6 | 88.1
CC(=O)N1CC(Oc2ccc(N3CCC[C@@H]3c3csc(NC(=O)c4cccn4Cc4ccnc(F)c4)n3)cc2)C1 [Compound A81, (R)-N-(4-(1-(4-((1-acetylazetidin-3-yl)oxy)phenyl)pyrrolidin-2-yl)thiazol-2-yl)-1-((2-fluoropyridin-4-yl)methyl)-1H-pyrrole-2-carboxamide] | 12.8 | 14 | 143 | 10.2 | 23.7 | 679 | 39.5 | > 25000 | 41.5 | 3 | 8.77 | 68.9
CC(=O)N1CC=C(Oc2ccc(N3CCC[C@@H]3c3csc(NC(=O)c4cccn4Cc4ccnc(F)c4)n3)cc2)CC1 [Compound A82, (R)-N-(4-(1-(4-((1-acetyl-1,2,3,6-tetrahydropyridin-4-yl)oxy)phenyl)pyrrolidin-2-yl)thiazol-2-yl)-1-((2-fluoropyridin-4-yl)methyl)-1H-pyrrole-2-carboxamide] | 3.95 | 78.6 | 653 | 8.31 | 210 | 5660 | 0.84 | > 25000 | 249 | 3.2 | 0.16 | 15.3
CC(=O)N1CCC[C@@H](Oc2ccc(N3CCC[C@@H]3c3csc(NC(=O)c4cccn4Cc4ccnc(F)c4)n3)cc2)C1 [Compound A83] | 0.64 | 82.1 | 1530 | 18.6 | 249 | 4000 | 0.55 | > 25000 | 232 | 2.8 | 0.16 | 16.6
